Experimental findings from patent US20210309666A1, “SMALL MOLECULE MDM2 PROTEIN DEGRADERS” (THE REGENTS OF THE UNIVERSITY OF MICHIGAN, priority 2018, published 2021) are described below.

Structures are written as SMILES.

The test system of this test is RS4;11 cells. The test can be described thus: Cell growth inhibition, 4-day proliferation assay (WST-8). Format: cell-based. Particulars: Homo sapiens, 96 h; RS4;11 cells, 4 days, WST-8; read-out: RS4; 11 Cells IC50. As to the method: The effect of representative Compounds of the Disclosure on cell viability was determined in a 4-day proliferation assay. Cells were maintained in the appropriate culture medium with 10% FBS at 37° C. and an atmosphere of 5% CO2. Also, the effect of a MDM2 inhibitor (Cpd. A; see Compound Example No. 22 of U.S. Pat. No. 8,629,141) and a known MDM2 degrader (Cpd. D, see Cpd. No. 175 of WO 2017/0176957) on cell viability in various cell lines is also included in Table 5. Cpd. […] A and D. The structure of Cpd. A is:
Cells were seeded in 96-well flat bottom (Corning COSTAR, Corning, N.Y., cat #3595) at a density of 2,000-3,000 cells/well in 100 μL of culture medium. Compounds were serially diluted in the appropriate medium, and 100 μL of the diluted compounds were added to the appropriate wells of the cell plate. After the addition of compounds, the cells were incubated at 37° C. in an atmosphere of 5% CO2 for 4 days. Cell viability was determined using the WST (2-(2-methoxy-4-nitrophenyl)-3-(4-nitrophenyl)-5-(2,4-disulfophenyl)-2H-tetrazolium, monosodium salt) Cell Counting-8 Kit (Dojindo Molecular Technologies, Inc., Rockville, Md.) according to the manufacturers' instructions.
WST-8 reagent was added to each well at a final concentration of 10% (v/v), and then the plates were incubated at 37° C. for 1-2 hours for color development. The absorbance was measured at 450 nm using a SPECTRAmax PLUS plate reader (Molecular Devices, Sunnyvale, Calif.). The readings were normalized to the DMSO-treated cells and the half maximal inhibitory concentration (IC50) was calculated by nonlinear regression (four parameters sigmoid fitted with variable slope, least squares fit, and no constraint) analysis using the GraphPad Prism 5 software (GraphPad Software, La Jolla, Calif.).
Background: Tetrazolium assays rely on reduction of a dye to a coloured formazan, in cell work by metabolically active cells.

Regarding `O=C1CCC(N2Cc3c(C#CC4CCN(C(=O)CN5CCN(C(=O)[C@@H]6NC7(CCCCC7)[C@@]7(C(=O)Nc8cc(Cl)ccc87)[C@H]6c6cccc(Cl)c6F)CC5)CC4)cccc3C2=O)C(=O)N1` (stereo partly drawn) [Cpd. No. 7, 3-(4-((1-(2-(4-((3′R,4′S,5′R)-6″-chloro-4′-(3-chloro-2-fluorophenyl)-2″-oxodispiro[cyclohexane-1,2′-pyrrolidine-3′,3″-indoline]-5′-carbonyl)piperazin-1-yl)acetyl)piperidin-4-yl)ethynyl)-1-oxoisoindolin-2-yl)piperidine-2,6-dione], the IC50 is above 100 nM.
Regarding `O=C1CCC(N2Cc3c(NC4CCN(CCCNC(=O)C56CCC(NC(=O)[C@@H]7NC8(CCCCC8)[C@@]8(C(=O)Nc9cc(Cl)ccc98)[C@H]7c7cccc(Cl)c7F)(CC5)CC6)CC4)cccc3C2=O)C(=O)N1` (stereo partly drawn) [Cpd. No. 1, (3′R,4′S,5′R)-6″-chloro-4′-(3-chloro-2-fluorophenyl)-N-(4-((3-(4-((2-(2,6-dioxopiperidin-3-yl)-1-oxoisoindolin-4-yl)amino)piperidin-1-yl)propyl)carbamoyl)bicyclo[2.2.2]octan-1-yl)-2″-oxodispiro[cyclohexane-1,2′-pyrrolidine-3′,3″-indoline]-5′-carboxamide], the IC50 was 2.4 nM.
For the compound `O=C1CCC(N2Cc3c(C#CC4CN(C(=O)[C@H]5CC[C@H](NC(=O)[C@@H]6NC7(CCCCC7)[C@@]7(C(=O)Nc8cc(Cl)ccc87)[C@H]6c6cccc(Cl)c6F)CC5)C4)cccc3C2=O)C(=O)N1` (stereo partly drawn) [Cpd. No. 32, (3′R,4′S,5′R)-6″-chloro-4′-(3-chloro-2-fluorophenyl)-N-(4-(3-((2-(2,6-dioxopiperidin-3-yl)-1-oxoisoindolin-4-yl)ethynyl)azetidine-1-carbonyl)cyclohexyl)-2″-oxodispiro[cyclohexane-1,2′-pyrrolidine-3′,3″-indoline]-5′-carboxamide], the IC50 is 1.3 nM.
With `CN(C(=O)[C@@H]1NC2(CCCCC2)[C@@]2(C(=O)Nc3cc(Cl)ccc32)[C@H]1c1cccc(Cl)c1F)[C@H]1CC[C@H](C(=O)N2CCC(C#Cc3cccc4c3CN(C3CCC(=O)NC3=O)C4=O)CC2)CC1` (stereo partly drawn) [Cpd. No. 15, (3′R,4′S,5′R)-6″-chloro-4′-(3-chloro-2-fluorophenyl)-N-((1r,4R)-4-(4-((2-(2,6-dioxopiperidin-3-yl)-1-oxoisoindolin-4-yl)ethynyl)piperidine-1-carbonyl)cyclohexyl)-N-methyl-2″-oxodispiro[cyclohexane-1,2′-pyrrolidine-3′,3″-indoline]-5′-carboxamide], the IC50 came out at 60 nM.
With `CN1[C@@H](C(=O)N[C@H]2CC[C@H](C(=O)N3CCC(C#Cc4cccc5c4CN(C4CCC(=O)NC4=O)C5=O)CC3)CC2)[C@H](c2cccc(Cl)c2F)[C@]2(C(=O)Nc3cc(Cl)ccc32)C12CCCCC2` (stereo partly drawn) [Cpd. No. 9, (3′R,4′S,5′R)-6″-chloro-4′-(3-chloro-2-fluorophenyl)-N-((1r,4R)-4-(4-((2-(2,6-dioxopiperidin-3-yl)-1-oxoisoindolin-4-yl)ethynyl)piperidine-1-carbonyl)cyclohexyl)-1′-methyl-2″-oxodispiro[cyclohexane-1,2′-pyrrolidine-3′,3″-indoline]-5′-carboxamide], the IC50 was 2.8 nM.
The value for `O=C1CCC(N2Cc3c(C#CC4CCN(C(=O)[C@H]5C[C@H](NC(=O)[C@@H]6NC7(CCCCC7)[C@@]7(C(=O)Nc8cc(Cl)ccc87)[C@H]6c6cccc(Cl)c6F)C5)CC4)cccc3C2=O)C(=O)N1` (stereo partly drawn) [Cpd. No. 12, (3′R,4′S,5′R)-6″-chloro-4′-(3-chloro-2-fluorophenyl)-N-((1r,3R)-3-(4-((2-(2,6-dioxopiperidin-3-yl)-1-oxoisoindolin-4-yl)ethynyl)piperidine-1-carbonyl)cyclobutyl)-2″-oxodispiro[cyclohexane-1,2′-pyrrolidine-3′,3″-indoline]-5′-carboxamide] was 1.4 nM.
